Results as given in patent publication EP0460690A2, “Use of phenolsulfophthaline derivatives for the treatment of osteoporosis” (THE GREEN CROSS CORPORATION, priority 1990, dated 1991).

Experiments:
[1] = tested on: rats suffering from osteoporosis; assay: Bone mass increase in osteoporosis rats (ovariectomy and sciatic nerve excision); format: in vivo, Wister female rats; conditions: thigh bone, oral 100 µg/kg body weight everyday in 5 % Tween 20, after 12 weeks; for Bone Mass Ash wt./unit vol.: carrier 370 ± 19, normal rats 387 ± 16; for Bone Mass Dry wt./unit vol.: carrier 821 ± 15, normal rats 976 ± 11
Description: The effects of the phenolsulfophthalein compounds of the present invention of increasing bone mass were examined by using rats suffering from osteoporosis.
Wister female rats aged 7 to 8 months (8 rats per group) were subjected to ovariectomy and sciatic nerve excision to thereby cause osteoporosis. Starting from the next day after the operation, compound 1, as described above, and compound 2 (represented by formula (I), wherein R¹ and R² are both acetyl groups) each dispersed in 5 % Tween 20 were orally administered in a dose of 100 µg/kg body weight everyday. After 12 weeks, the thigh bones of the animals were collected and the volume, dry weight and ash weight were measured. Thus the dry weight and ash weight per unit volume were determined.

Wister female rats = assay: Acute toxicity, oral administration; format: in vivo; conditions: dispersed in 5 % Tween 20, eight rats, dose of 1 g/kg body weight
Description: Compound 1 dispersed in 5 % Tween 20 was orally administered to eight Wister female rats aged 7 to 8 months.

[2] = biological target: T1, estrogen receptor in mastocarcinoma (Homo sapiens, UniProt P03372); conditions: literature report; cited from earlier work
T1 construct: host or cells: mastocarcinoma
T1 sequence (P03372 1-595): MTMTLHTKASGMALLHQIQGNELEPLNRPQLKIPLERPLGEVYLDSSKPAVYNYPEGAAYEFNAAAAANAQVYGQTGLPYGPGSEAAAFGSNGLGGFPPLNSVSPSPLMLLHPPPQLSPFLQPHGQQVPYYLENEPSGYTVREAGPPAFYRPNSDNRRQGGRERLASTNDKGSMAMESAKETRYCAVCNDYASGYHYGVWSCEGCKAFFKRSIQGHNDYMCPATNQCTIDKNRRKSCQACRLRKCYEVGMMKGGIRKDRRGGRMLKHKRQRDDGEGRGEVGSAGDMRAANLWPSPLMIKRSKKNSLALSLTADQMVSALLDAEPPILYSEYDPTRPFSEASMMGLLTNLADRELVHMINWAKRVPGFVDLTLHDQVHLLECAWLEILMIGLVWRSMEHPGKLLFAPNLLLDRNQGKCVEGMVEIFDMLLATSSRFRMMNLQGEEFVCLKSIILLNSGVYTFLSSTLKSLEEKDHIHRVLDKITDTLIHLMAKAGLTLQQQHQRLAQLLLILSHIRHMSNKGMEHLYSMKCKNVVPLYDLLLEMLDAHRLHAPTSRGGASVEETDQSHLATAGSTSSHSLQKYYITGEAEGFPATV

Structure (SMILES) | Bone Mass Ash wt./unit vol. [1] [mg/mL] | Bone Mass Dry wt./unit vol. [1] [mg/mL] | mortality (acute toxicity) (Wister female rats) | binding to estrogen receptor [2]
O=S(=O)(Oc1ccccc1)c1ccccc1C(c1ccc(O)cc1)c1ccc(O)cc1 [compound 1] | 385 ± 12 | 861 ± 12 | no animal died | 
CC(=O)Oc1ccc(C(c2ccc(OC(C)=O)cc2)c2ccccc2S(=O)(=O)Oc2ccccc2)cc1 [compound 2] | 383 ± 14 | 856 ± 15 |  | 
O=S(=O)(Oc1ccccc1)c1ccccc1C(c1ccc(O)cc1)c1ccc(O)cc1 [drawing 1] |  |  |  | binding to an estrogen receptor
